Organism: Rattus norvegicus
Test: Open TG-GATES - Regimen: Single
Format: toxicity, organism-based, Sprague-Dawley
Set-up: regimen Single, gender Male, age 6 weeks
Conditions: in vivo, po, route gavage; for APTT / Bas / Eos / Fbg / Hb / Ht / Lym / MCH / MCHC / MCV / Mono / Neu / PT / Plat / RBC / Ret / WBC: tissue Blood; for KIDNEY_L / KIDNEY_R / KIDNEY_TOTAL: tissue Kidney; for LIVER: tissue Liver; for A/G / ALP / ALT / AST / BUN / CRE / Ca / Cl / DBIL / GLC / IP / K / LDH / Na / PL / RALB / TBIL / TC / TG / TP / gamma-GTP: tissue Plasma
[1] = 60 mg/kg, 3 h, dose level Middle
[2] = 60 mg/kg, 6 h, dose level Middle
[3] = 60 mg/kg, 9 h, dose level Middle
[4] = 60 mg/kg, 24 h, dose level Middle
[5] = 200 mg/kg, 3 h, dose level High
[6] = 200 mg/kg, 6 h, dose level High
[7] = 200 mg/kg, 9 h, dose level High
[8] = 200 mg/kg, 24 h, dose level High

CCc1oc2ccccc2c1C(=O)c1cc(Br)c(O)c(Br)c1 [BENZBROMARONE]
TERMINAL_BW [1]: 215.1 g
APTT [1]: 17.4 s
Bas [1]: 0%
Eos [1]: 1%
Fbg [1]: 233.2 mg/dL
Hb [1]: 13.8 g/dL
Ht [1]: 41.1%
Lym [1]: 83%
MCH [1]: 21.9 pg
MCHC [1]: 33.7%
MCV [1]: 64.9 fL
Mono [1]: 6.6%
Neu [1]: 9.4%
PT [1]: 11.8 s
Plat [1]: 99.4 x10_4/uL
RBC [1]: 633 x10_4/ul
Ret [1]: 7.5%
WBC [1]: 133 x10_2/uL
KIDNEY_L [1]: 1 g
KIDNEY_R [1]: 1 g
KIDNEY_TOTAL [1]: 1.9 g
LIVER [1]: 10.6 g
A/G [1]: 2.1
ALP [1]: 892.8 IU/L
ALT [1]: 30.6 IU/L
AST [1]: 62.4 IU/L
BUN [1]: 12.8 mg/dL
CRE [1]: 0.6 mg/dL
Ca [1]: 11 mg/dL
Cl [1]: 103.8 meq/L
DBIL [1]: 0.064 mg/dL
GLC [1]: 202.8 mg/dL
IP [1]: 9.8 mg/dL
K [1]: 4.8 meq/L
LDH [1]: 87.4 IU/L
Na [1]: 139.6 meq/L
PL [1]: 147.6 mg/dL
RALB [1]: 3.8 g/dL
TBIL [1]: 0.3 mg/dL
TC [1]: 82.6 mg/dL
TG [1]: 72.8 mg/dL
TP [1]: 5.7 g/dL
gamma-GTP [1]: 1 IU/L
TERMINAL_BW [2]: 212 g
APTT [2]: 16.1 s
Bas [2]: 0%
Eos [2]: 1%
Fbg [2]: 230.6 mg/dL
Hb [2]: 13.5 g/dL
Ht [2]: 40.2%
Lym [2]: 75.6%
MCH [2]: 21.7 pg
MCHC [2]: 33.6%
MCV [2]: 64.5 fL
Mono [2]: 6.4%
Neu [2]: 17.2%
PT [2]: 12.2 s
Plat [2]: 103.4 x10_4/uL
RBC [2]: 624.2 x10_4/ul
Ret [2]: 7.8%
WBC [2]: 86 x10_2/uL
KIDNEY_L [2]: 1 g
KIDNEY_R [2]: 1 g
KIDNEY_TOTAL [2]: 2 g
LIVER [2]: 9.8 g
A/G [2]: 2.2
ALP [2]: 764.8 IU/L
ALT [2]: 28.8 IU/L
AST [2]: 58.8 IU/L
BUN [2]: 9.2 mg/dL
CRE [2]: 0.5 mg/dL
Ca [2]: 10.3 mg/dL
Cl [2]: 103.6 meq/L
DBIL [2]: 0.016 mg/dL
GLC [2]: 195 mg/dL
IP [2]: 10.1 mg/dL
K [2]: 4.8 meq/L
LDH [2]: 88.8 IU/L
Na [2]: 138.6 meq/L
PL [2]: 131.4 mg/dL
RALB [2]: 3.8 g/dL
TBIL [2]: 0.4 mg/dL
TC [2]: 74.2 mg/dL
TG [2]: 79.6 mg/dL
TP [2]: 5.6 g/dL
gamma-GTP [2]: 1 IU/L
TERMINAL_BW [3]: 210.8 g
APTT [3]: 16.3 s
Bas [3]: 0%
Eos [3]: 1%
Fbg [3]: 233 mg/dL
Hb [3]: 13.6 g/dL
Ht [3]: 40.8%
Lym [3]: 77.6%
MCH [3]: 21.9 pg
MCHC [3]: 33.4%
MCV [3]: 65.6 fL
Mono [3]: 5.4%
Neu [3]: 16.6%
PT [3]: 12.2 s
Plat [3]: 109.2 x10_4/uL
RBC [3]: 622.6 x10_4/ul
Ret [3]: 7.4%
WBC [3]: 90.4 x10_2/uL
KIDNEY_L [3]: 0.9 g
KIDNEY_R [3]: 1 g
KIDNEY_TOTAL [3]: 1.9 g
LIVER [3]: 9.1 g
A/G [3]: 2.1
ALP [3]: 731.6 IU/L
ALT [3]: 29 IU/L
AST [3]: 59.8 IU/L
BUN [3]: 10.4 mg/dL
CRE [3]: 0.6 mg/dL
Ca [3]: 10.1 mg/dL
Cl [3]: 104.4 meq/L
DBIL [3]: 0.004 mg/dL
GLC [3]: 187.8 mg/dL
IP [3]: 11.1 mg/dL
K [3]: 4.9 meq/L
LDH [3]: 85 IU/L
Na [3]: 138 meq/L
PL [3]: 112.4 mg/dL
RALB [3]: 3.9 g/dL
TBIL [3]: 0.3 mg/dL
TC [3]: 67.4 mg/dL
TG [3]: 37.6 mg/dL
TP [3]: 5.7 g/dL
gamma-GTP [3]: 1.2 IU/L
TERMINAL_BW [4]: 222.2 g
APTT [4]: 16.1 s
Bas [4]: 0%
Eos [4]: 1.2%
Fbg [4]: 223.2 mg/dL
Hb [4]: 13.8 g/dL
Ht [4]: 41.1%
Lym [4]: 77.2%
MCH [4]: 22.4 pg
MCHC [4]: 33.7%
MCV [4]: 66.5 fL
Mono [4]: 9%
Neu [4]: 12.6%
PT [4]: 12.3 s
Plat [4]: 105.9 x10_4/uL
RBC [4]: 617.8 x10_4/ul
Ret [4]: 7.5%
WBC [4]: 80 x10_2/uL
KIDNEY_L [4]: 1 g
KIDNEY_R [4]: 1 g
KIDNEY_TOTAL [4]: 2.1 g
LIVER [4]: 11.9 g
A/G [4]: 2.2
ALP [4]: 861.2 IU/L
ALT [4]: 31.6 IU/L
AST [4]: 63.4 IU/L
BUN [4]: 18.6 mg/dL
CRE [4]: 0.6 mg/dL
Ca [4]: 10.3 mg/dL
Cl [4]: 104.8 meq/L
DBIL [4]: 0.016 mg/dL
GLC [4]: 183.2 mg/dL
IP [4]: 7.9 mg/dL
K [4]: 5 meq/L
LDH [4]: 111.2 IU/L
Na [4]: 138.2 meq/L
PL [4]: 130.6 mg/dL
RALB [4]: 4.1 g/dL
TBIL [4]: 0.4 mg/dL
TC [4]: 68.2 mg/dL
TG [4]: 111 mg/dL
TP [4]: 5.9 g/dL
gamma-GTP [4]: 1.4 IU/L
TERMINAL_BW [5]: 215.1 g
APTT [5]: 17.8 s
Bas [5]: 0%
Eos [5]: 1%
Fbg [5]: 227 mg/dL
Hb [5]: 13.3 g/dL
Ht [5]: 39.8%
Lym [5]: 76.4%
MCH [5]: 22.2 pg
MCHC [5]: 33.3%
MCV [5]: 66.5 fL
Mono [5]: 4.4%
Neu [5]: 18.4%
PT [5]: 12.3 s
Plat [5]: 98.6 x10_4/uL
RBC [5]: 600 x10_4/ul
Ret [5]: 7.7%
WBC [5]: 85.4 x10_2/uL
KIDNEY_L [5]: 1 g
KIDNEY_R [5]: 0.9 g
KIDNEY_TOTAL [5]: 1.9 g
LIVER [5]: 9.9 g
A/G [5]: 1.9
ALP [5]: 814 IU/L
ALT [5]: 37.2 IU/L
AST [5]: 70 IU/L
BUN [5]: 17.2 mg/dL
CRE [5]: 0.8 mg/dL
Ca [5]: 9.9 mg/dL
Cl [5]: 103.4 meq/L
DBIL [5]: 0.096 mg/dL
GLC [5]: 252.6 mg/dL
IP [5]: 10 mg/dL
K [5]: 5.3 meq/L
LDH [5]: 137.2 IU/L
Na [5]: 138.4 meq/L
PL [5]: 136.8 mg/dL
RALB [5]: 3.6 g/dL
TBIL [5]: 0.4 mg/dL
TC [5]: 75.6 mg/dL
TG [5]: 69.6 mg/dL
TP [5]: 5.5 g/dL
gamma-GTP [5]: 1 IU/L
TERMINAL_BW [6]: 213.5 g
APTT [6]: 16.3 s
Bas [6]: 0%
Eos [6]: 0.8%
Fbg [6]: 239.2 mg/dL
Hb [6]: 13.2 g/dL
Ht [6]: 39.6%
Lym [6]: 80.2%
MCH [6]: 21.6 pg
MCHC [6]: 33.3%
MCV [6]: 64.8 fL
Mono [6]: 5.4%
Neu [6]: 13.6%
PT [6]: 12.2 s
Plat [6]: 97.5 x10_4/uL
RBC [6]: 612 x10_4/ul
Ret [6]: 7.9%
WBC [6]: 66.9 x10_2/uL
KIDNEY_L [6]: 1 g
KIDNEY_R [6]: 1 g
KIDNEY_TOTAL [6]: 2 g
LIVER [6]: 9.5 g
A/G [6]: 2
ALP [6]: 776.8 IU/L
ALT [6]: 34 IU/L
AST [6]: 59 IU/L
BUN [6]: 14.2 mg/dL
CRE [6]: 0.7 mg/dL
Ca [6]: 10.5 mg/dL
Cl [6]: 101.4 meq/L
DBIL [6]: 0.024 mg/dL
GLC [6]: 212.4 mg/dL
IP [6]: 10.3 mg/dL
K [6]: 4.8 meq/L
LDH [6]: 137.4 IU/L
Na [6]: 139.2 meq/L
PL [6]: 137 mg/dL
RALB [6]: 3.8 g/dL
TBIL [6]: 0.4 mg/dL
TC [6]: 78.4 mg/dL
TG [6]: 56.6 mg/dL
TP [6]: 5.7 g/dL
gamma-GTP [6]: 1.4 IU/L
TERMINAL_BW [7]: 213.1 g
APTT [7]: 17 s
Bas [7]: 0%
Eos [7]: 0%
Fbg [7]: 240 mg/dL
Hb [7]: 13.2 g/dL
Ht [7]: 39.4%
Lym [7]: 79.2%
MCH [7]: 22.2 pg
MCHC [7]: 33.6%
MCV [7]: 66 fL
Mono [7]: 2.8%
Neu [7]: 17.8%
PT [7]: 12.2 s
Plat [7]: 104 x10_4/uL
RBC [7]: 596.4 x10_4/ul
Ret [7]: 8.2%
WBC [7]: 96.1 x10_2/uL
KIDNEY_L [7]: 1 g
KIDNEY_R [7]: 1 g
KIDNEY_TOTAL [7]: 2 g
LIVER [7]: 9.2 g
A/G [7]: 2.1
ALP [7]: 868 IU/L
ALT [7]: 34.4 IU/L
AST [7]: 60.8 IU/L
BUN [7]: 16.6 mg/dL
CRE [7]: 0.7 mg/dL
Ca [7]: 10.4 mg/dL
Cl [7]: 103.4 meq/L
DBIL [7]: 0.04 mg/dL
GLC [7]: 207.8 mg/dL
IP [7]: 10.7 mg/dL
K [7]: 4.9 meq/L
LDH [7]: 178.8 IU/L
Na [7]: 138.6 meq/L
PL [7]: 143.8 mg/dL
RALB [7]: 3.9 g/dL
TBIL [7]: 0.3 mg/dL
TC [7]: 81.2 mg/dL
TG [7]: 65.6 mg/dL
TP [7]: 5.9 g/dL
gamma-GTP [7]: 1.4 IU/L
TERMINAL_BW [8]: 217.2 g
APTT [8]: 15.8 s
Bas [8]: 0%
Eos [8]: 0.6%
Fbg [8]: 219.2 mg/dL
Hb [8]: 13.9 g/dL
Ht [8]: 41.2%
Lym [8]: 83.6%
MCH [8]: 22.2 pg
MCHC [8]: 33.6%
MCV [8]: 65.9 fL
Mono [8]: 4.6%
Neu [8]: 11.4%
PT [8]: 12.4 s
Plat [8]: 107.4 x10_4/uL
RBC [8]: 627.2 x10_4/ul
Ret [8]: 7.6%
WBC [8]: 117.5 x10_2/uL
KIDNEY_L [8]: 1 g
KIDNEY_R [8]: 1 g
KIDNEY_TOTAL [8]: 2 g
LIVER [8]: 11.3 g
A/G [8]: 2.1
ALP [8]: 1012.6 IU/L
ALT [8]: 35 IU/L
AST [8]: 61 IU/L
BUN [8]: 16.8 mg/dL
CRE [8]: 0.7 mg/dL
Ca [8]: 10.2 mg/dL
Cl [8]: 103.6 meq/L
DBIL [8]: 0.018 mg/dL
GLC [8]: 182 mg/dL
IP [8]: 7.9 mg/dL
K [8]: 4.9 meq/L
LDH [8]: 186.2 IU/L
Na [8]: 139.6 meq/L
PL [8]: 119.6 mg/dL
RALB [8]: 3.9 g/dL
TBIL [8]: 0.3 mg/dL
TC [8]: 70.8 mg/dL
TG [8]: 74.8 mg/dL
TP [8]: 5.9 g/dL
gamma-GTP [8]: 1.6 IU/L
